Data taken from patent US9409880B2, “Modulators of TLR3/dsRNA complex and uses thereof” (The Regents of the University of Colorado, a body corporate, priority 2011, dated 2016).

Tested on: TNF-α and IL-1β production
Test: Cytokine-specific ELISA in RAW 264.7 cells
Format: cell-based, Mouse
Settings: 27 μM compound
Description: A secondary cell assay was used to confirm that compound 4a inhibits the downstream signaling transduction mediated by the formation of the TLR3/dsRNA complex. In addition to TLR3 signaling suppression, the release of the proinflammatory cytokines, TNF-α and IL-1β, were also studied.
RAW cells were planted in 6-well plates at 1,000,000 cells per well with 3 mL of medium (RPMI 1640 medium, supplemented with 10% FBS, penicillin (100 U/mL) and streptomycin ([…])) and grown for 24 h at 37° C. in a 5% CO2 humidified incubator. After 24 h, non-adherent cells and media were removed and replaced with fresh RPMI 1640 medium (3 mL/well). […] In additionally wells, one well was treated with only 4a (27 μM) and the other was treated with nothing. Plates were then incubated for an additional 24 h. […] Approximately 400 μL of supernatant were collected into new tubes, frozen at −80° C. until ready for cytokine measurement. The production of the cytokine interleukin-1β (IL-1β) and TNF-α was quantified with enzyme-linked immunosorbent assays (ELISA) using cytokine-specific capture antibodies, biotinylated monoclonal detection antibodies, and recombinant human cytokine standards according to commercially available ELISA kits from R&D Systems. The cytokine level in each sample was determined in duplicate.

**Q.** How did the IL-1β production turn out when `O=C(N[C@H](Cc1ccccc1)C(=O)O)c1sc2cc(F)ccc2c1Cl` [Compound 4a, (R)-2-(3-chloro-6-fluorobenzo[b]thiophene-2-carboxamido)-3-phenylpropanoic acid] was run?
**A.** Its IL-1β production is “inhibits”.

**Q.** And the TNF-α production?
**A.** Its TNF-α production is “inhibits”.
